Reference: ChEMBL document CHEMBL4507325 (2021)

Biological target: Branched-chain-amino-acid aminotransferase, mitochondrial (Homo sapiens, UniProt O15382)
Sequence (O15382 whole entry): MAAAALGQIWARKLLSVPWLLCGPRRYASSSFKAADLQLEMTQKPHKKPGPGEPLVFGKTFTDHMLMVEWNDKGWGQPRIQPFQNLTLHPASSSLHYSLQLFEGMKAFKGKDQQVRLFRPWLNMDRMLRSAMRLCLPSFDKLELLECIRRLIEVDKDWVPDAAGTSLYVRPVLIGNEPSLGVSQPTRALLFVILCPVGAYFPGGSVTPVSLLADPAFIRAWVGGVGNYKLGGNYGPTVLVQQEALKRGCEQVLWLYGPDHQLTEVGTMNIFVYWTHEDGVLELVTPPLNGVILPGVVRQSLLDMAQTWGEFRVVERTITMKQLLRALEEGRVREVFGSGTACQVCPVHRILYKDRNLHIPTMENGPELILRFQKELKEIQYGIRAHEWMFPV

IC50: 10.8 µM (not active)
Structure (SMILES): Cc1ccccc1Oc1cc(-n2c(=O)cc(C(F)(F)F)[nH]c2=O)c2ccccc2c1 [BAY-771]
